Test results taken from patent US7488748B2, “3,6-Disubstituted azabicyclo hexane derivatives as muscarinic receptor antagonists” (Ranbaxy Laboratories Limited, priority 2003, dated 2009).

Assays:
[1] = target: T1, M2 muscarinic receptor (Rattus norvegicus, UniProt P10980); test: Radioligand binding assay, [3H]-N-methylscopolamine, rat heart membranes; details: [3H]NMS, Ki by Cheng & Prusoff; for Ki: read-out: Receptor Binding Assay pKi M2 (converted)
T1 construct: from tissue; host or cells: rat heart membrane homogenate
T1 sequence (P10980 1-466): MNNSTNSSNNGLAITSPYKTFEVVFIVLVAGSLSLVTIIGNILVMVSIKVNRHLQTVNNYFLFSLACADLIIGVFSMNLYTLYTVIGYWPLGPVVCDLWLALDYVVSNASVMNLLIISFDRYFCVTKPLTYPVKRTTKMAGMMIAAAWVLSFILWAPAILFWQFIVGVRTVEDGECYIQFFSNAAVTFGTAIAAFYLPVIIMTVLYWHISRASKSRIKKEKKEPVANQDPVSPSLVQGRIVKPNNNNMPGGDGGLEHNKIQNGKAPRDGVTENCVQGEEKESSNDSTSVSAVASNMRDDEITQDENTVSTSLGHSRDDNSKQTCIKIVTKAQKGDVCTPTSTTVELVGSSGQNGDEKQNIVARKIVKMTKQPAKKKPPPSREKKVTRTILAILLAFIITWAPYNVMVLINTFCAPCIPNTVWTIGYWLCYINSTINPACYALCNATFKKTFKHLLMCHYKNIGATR
Protocol: (§1) The affinity of test compounds for M2 and M3 muscarinic receptor subtypes was determined by [^3H]—N-methylscopolamine binding studies using rat heart and submandibular gland respectively as described by Moriya et al., (Life Sci., 1999,64(25):2351-2358) with minor modifications.
(§2) Membrane preparation: Submandibular glands and heart were isolated and placed in ice cold homogenizing buffer (HEPES 20 mM, 10 mM EDTA, pH 7.4) immediately after sacrifice. The tissues were homogenized in 10 volumes of homogenizing buffer and the homogenate was filtered through two layers of wet gauze and filtrate was centrifuged at 500 g for 10 min. The supernatant was subsequently centrifuged at 40,000 g for 20 min. The pellet thus obtained was resuspended in same volume of assay buffer (HEPES 20 mM, EDTA 5 mM, pH 7.4) and were stored at −70° C. until the time of assay.
(§3) Ligand binding assay The compounds were dissolved and diluted in DMSO. The membrane homogenates (150-250 μg protein) were incubated in 250 μl of assay buffer (HEPES 20 mM, pH 7.4) at 24-25° C. for 3 h. Non-specific binding was determined in the-presence of 1 μM atropine. The incubation was terminated by vacuum filtration over GF/B fiber filters(Wallac). The filters were then washed with ice cold 50 mM Tris HCl buffer (pH 7.4). The filter mats were dried and bound radioactivity retained on filters was counted. The IC50 & Kd were estimated by using the non-linear curve fitting program using G Pad Prism software. The value of inhibition constant Ki was calculated from competitive binding studies by using Cheng & Prusoff equation (Biochem Pharmacol, 1973,22: 3099-3108), Ki=IC50/(1+L/Kd), where L is the concentration of [^3H]NMS used in the particular experiment.

[2] = target: T2, M3 muscarinic receptor (Rattus norvegicus, UniProt P08483); test: Radioligand binding assay, [3H]-N-methylscopolamine, rat submandibular gland membranes; details: [3H]NMS, Ki by Cheng & Prusoff; for Ki: read-out: Receptor Binding Assay pKi M3 (converted)
T2 construct: from tissue; host or cells: rat submandibular gland membrane homogenate
Protocol: as §1, §2, §3

[3] = test system: isolated rat bladder; test: Functional experiments using isolated rat bladder (carbachol-induced contraction); details: isolated rat bladder strips, carbachol concentration response curve, antagonist added 20 min prior
Protocol: Functional Experiments Using Isolated Rat Bladder:
Animals were euthanized by overdose of urethane and whole bladder was isolated and removed rapidly and placed in ice cold Tyrode buffer with the following composition (mMol/L) NaCl 137; KCl 2.7; CaCl2 1.8; MgCl2 0.1; NaHCO3 11.9; NaH2PO4 0.4; Glucose 5:55 and continuously gassed with 95% O2 and 5% CO2.
The bladder was cut into longitudinal strips (3 mm wide and 5-6 mm long) and mounted in 10 ml organ baths at 30° C., with one end connected to the base of the tissue holder and the other end connected to a polygraph through a force displacement transducer. Each tissue was maintained at a constant basal tension of 2 g and allowed to equilibrate for 1 hour during which the PSS was changed every 15 min. At the end of equilibration period the stabilization of the tissue contractile response was assessed with 1 μmol/L of Carbachol consecutively for 2-3 times. Subsequently a cumulative concentration response curve to carbachol (10-9 mol/L to 3×10^−5 mol/L) was obtained. After several washes, once the baseline was achieved, cumulative concentration response curve was obtained in presence of NCE (NCE added 20 min. prior to the second CRC).
The contractile results were expressed as % of control E max. ED50 values were calculated by fitting a non-linear regression curve (Graph Pad Prism). PKB values were calculated by the formula pKB=−log [(molar concentration of antagonist/(dose ratio−1))]
dose ratio=ED50 in the presence of antagonist/ED50 in the absence of antagonist.

T2 sequence (P08483 whole entry): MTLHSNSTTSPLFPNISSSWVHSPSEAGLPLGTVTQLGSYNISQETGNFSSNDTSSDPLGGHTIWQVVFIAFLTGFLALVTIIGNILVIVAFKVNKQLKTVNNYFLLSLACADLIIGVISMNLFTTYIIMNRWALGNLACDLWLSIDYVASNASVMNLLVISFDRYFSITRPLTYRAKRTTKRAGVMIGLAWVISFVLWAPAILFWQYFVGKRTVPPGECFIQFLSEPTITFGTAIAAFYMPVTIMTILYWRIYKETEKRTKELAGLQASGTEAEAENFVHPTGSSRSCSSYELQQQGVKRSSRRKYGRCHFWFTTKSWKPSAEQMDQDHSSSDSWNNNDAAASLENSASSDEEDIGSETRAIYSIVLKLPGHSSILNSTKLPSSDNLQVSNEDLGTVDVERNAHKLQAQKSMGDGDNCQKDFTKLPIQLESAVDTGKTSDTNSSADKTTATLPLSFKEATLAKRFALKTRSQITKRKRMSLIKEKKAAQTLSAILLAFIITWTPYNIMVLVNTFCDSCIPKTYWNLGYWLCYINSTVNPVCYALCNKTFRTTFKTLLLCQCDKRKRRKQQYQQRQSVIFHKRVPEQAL

| SMILES | Receptor Binding Assay pKi M2 [1] | Receptor Binding Assay pKi M3 [2] | Functional Assay pKB [3] | Ki [1] [nM] | Ki [2] [nM] |
| --- | --- | --- | --- | --- | --- |
| CC(c1ccccc1)N1C[C@@H]2[C@H](C1)[C@H]2NC(=O)C(O)(c1ccccc1)C1CCCCCC1 (stereo partly drawn) [Compound No. 81, (1α, 5α, 6α)-N-[3-(1-phenylethyl)-3-azabicyclo[3.1.0]-hex-6-yl]-2-hydroxy-2-cycloheptyl-2-phenylacetamide] | 7.27 | 8.62 -log M (pKi, unitless) | 7.89 | – | – |
| O=C(NC1C2CN(Cc3ccccc3)CC21)C(c1ccccc1)C1CCCCC1 (stereo not drawn) [Compound No. 116, (1α, 5α, 6α)-N-[3-benzyl-3-azabicyclo[3.1.0]-hex-6-yl]-2-cyclohexyl-1-2-phenylacetamide] | – | – | 6.03 | > 1000 | > 1000 |
| Cc1ccc(CCN2CC3C(C2)C3NC(=O)C(O)(c2ccccc2)C2CCCC2)cc1C (stereo not drawn) [Compound No. 50] | – | – | 7.48 | 813 | 43.7 |
| O=C(NC1C2CN(Cc3ccccc3)CC21)C(Cl)(c1ccccc1)C1CCCCC1 (stereo not drawn) [Compound No. 115, (1α, 5α, 6α)-N-[3-benzyl-3-azabicyclo[3.1.0]-hex-6-yl]-2-chloro-2-cyclohexyl-2-phenylacetamide] | – | – | 5.45 | > 1000 | > 1000 |
| O=C(NC1C2CN(Cc3ccccc3)CC21)C(O)c1ccccc1 (stereo not drawn) [Compound No. 117, (1α, 5α, 6α)-N-[3-benzyl-3-azabicyclo[3.1.0]-hex-6-yl]-2-hydroxy-2-phenylacetamide] | – | – | 5.08 | > 1000 | > 1000 |
| O=C(NC1C2CN(Cc3cccs3)CC21)C(O)(c1ccccc1)C1CCCC1 (stereo not drawn) [Compound No. 3, (1α, 5α, 6α)-N-[3-(2-thienylmethyl)-3-azabicyclo[3.1.0]hex-6-yl]-2-hydroxy-2-cyclopentyl-2-phenylacetamide] | – | – | 8.04 | 3980 | 525 |
| Cc1ccc(C(C)N2CC3C(C2)C3NC(=O)C(O)(c2ccccc2)C2CCCC2)cc1 (stereo not drawn) [Compound No. 43, (1α, 5α, 6α)-N-[3-[1-(4-methylphenyl)ethyl]-3-azabicyclo[3.1.0]hex-6-yl]-2-hydroxy-2-cyclopentyl-2-phenylacetamide] | – | – | 6.86 | 1230 | 58.9 |
| O=C(NC1C2CN(CCc3ccc(Cl)cc3)CC21)C(O)(c1ccccc1)C1CCCC1 (stereo not drawn) [Compound No. 17, (1α, 5α, 6α)-N-[3-(4-chlorophenethyl)-3-azabicyclo[3.1.0]hex-6-yl]-2-hydroxy-2-cyclopentyl-2-phenylacetamide] | – | – | 7.02 | 501 | 79.4 |
| CC(C)=CCCN1CC2C(C1)C2N(C)C(=O)C(O)(c1ccccc1)C1CCCC1 (stereo not drawn) [Compound No. 125, N-methyl-N-(1α, 5α, 6α)-N-[3-(4-methyl-3-pentenyl)-3-azabicyclo[3.1.0]-hex-6-yl]-2-cyclopentyl-2-hydroxy-2-phenylacetamide] | – | – | 8.36 | 24.5 | 26.3 |
| CC(c1ccccc1)N1CC2C(C1)C2NC(=O)C(O)(c1ccccc1)C1CCCC1 (stereo not drawn) [Compound No. 21, (1α, 5α, 6α)-N-[3-(1-phenylethyl)-3-azabicyclo[3.1.0]hex-6-yl]-2-hydroxy-2-cyclopentyl-2-phenylacetamide] | – | – | 8.2 | 631 | 25.1 |
| O=C(NC1C2CN(Cc3cccs3)CC21)C(O)(c1ccccc1)C1CCCCC1 (stereo not drawn) [Compound No. 2, (1α, 5α, 6α)-N-[3-(2-Thienylmethyl)-3-azabicyclo[3.1.0]hex-6-yl]-2-hydroxy-2-cyclohexyl-2-phenylacetamide] | – | – | 7.52 | 3160 | 129 |
| COC(=O)c1ccc(CCN2CC3C(C2)C3NC(=O)C(O)(c2ccccc2)C2CCCC2)cc1 (stereo not drawn) [Compound No. 66, (1α, 5α, 6α)-N-[3-(2-(4-methoxycarbonyl)phenyl)ethyl-3-azabicyclo[3.1.0]hex-6-yl]-2-hydroxy-2-cyclopentyl-2-phenylacetamide] | – | – | 7.67 | 537 | 43.7 |
| CC(c1ccccc1)N1CC2C(C1)C2NC(=O)C(O)(c1ccccc1)C1CCCCC1 (stereo not drawn) [Compound No. 58, (1α, 5α, 6α)-N-[3-[1-(phenyl)ethyl]-3-azabicyclo [3.1.0]hex-6-yl]-2-hydroxy-2-cyclohexyl-2-phenylacetamide] | – | – | 7.89 | 155 | 5.89 |
| O=C(NC1C2CN(CCCc3ccccc3)CC21)C(O)(c1ccccc1)C1CCCC1 (stereo not drawn) [Compound No. 19, (1α, 5α, 6α)-N-[3-(3-phenylpropyl)-3-azabicyclo[3.1.0]hex-6-yl]-2-hydroxy-2-cyclopentyl-2-phenylacetamide] | – | – | 7.52 | 2630 | 776 |
| O=C(N[C@H]1[C@@H]2CN(CCc3ccc(CO)cc3)C[C@@H]21)C(O)(c1ccccc1)C1CCCC1 (stereo partly drawn) [Compound No. 71, (1α, 5α, 6α)-N-[3-(4-hydroxymethylphenethyl)-3-azabicyclo [3.1.0]-hex-6-yl]-2-hydroxy-2-cyclopentyl-2-phenylacetamide] | 6.01 | 7.37 -log M (pKi, unitless) | 6.8 | – | – |
